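Compound exposure: 48 hours, 5 concentrations, 96-well plates. Here, GI50 denotes the concentration required for 50% inhibition of growth.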 Active and inactive are the calls of the source. Rule as the data show it: active = GI50 up to about 1.1 µM and inactive = higher.
Tests used:
Test in all cases: DTP human tumour cell line panel, 48 h
RXF 393 = test system: RXF 393
UO-31 = test system: UO-31
IGROV-1 = test system: IGROV-1
RPMI-8226 = test system: RPMI-8226
SR = test system: SR
CAKI-1 = test system: CAKI-1
SW-620 = test system: SW-620
SF-295 = test system: SF-295
HOP-62 = test system: HOP-62
UACC-62 = test system: UACC-62
M14 = test system: M14
KM12 = test system: KM12
ACHN = test system: ACHN
HCC 2998 = test system: HCC 2998
OVCAR-3 = test system: OVCAR-3
NCI-H23 = test system: NCI-H23

Measured: GI50

COc1cc2noc(-c3ccccc3)c2cc1OC
inactive: RXF 393 23.8 µM | UO-31 34.8 µM | IGROV-1 > 100 µM | RPMI-8226 18.7 µM | SR 37 µM | CAKI-1 27.4 µM | SW-620 57.3 µM | SF-295 19 µM | HOP-62 22.4 µM | UACC-62 74.3 µM | M14 55.6 µM | KM12 29 µM | ACHN 87.1 µM | HCC 2998 58.1 µM

Cc1c(CC/C(=N\Nc2ccc([N+](=O)[O-])cc2[N+](=O)[O-])c2ccccc2)c2ccccc2n1C
inactive: RXF 393 > 46.1 µM | UO-31 > 86.9 µM | IGROV-1 > 100 µM | RPMI-8226 20.7 µM | OVCAR-3 > 100 µM | CAKI-1 > 100 µM | SW-620 > 100 µM | SF-295 > 100 µM | NCI-H23 > 100 µM | HOP-62 > 100 µM | UACC-62 > 100 µM | M14 > 100 µM | KM12 > 100 µM | ACHN > 100 µM | HCC 2998 > 100 µM

CCOC(=O)C(=O)Nc1nc2ccc(C)cc2s1
inactive: UO-31 > 100 µM | IGROV-1 > 100 µM | RPMI-8226 > 100 µM | OVCAR-3 > 100 µM | SR > 100 µM | CAKI-1 > 100 µM | SW-620 > 100 µM | NCI-H23 > 100 µM | HOP-62 > 100 µM | UACC-62 > 100 µM | M14 > 100 µM | KM12 > 100 µM | ACHN > 100 µM | HCC 2998 > 100 µM

CCCCCCCCCCCCCC(=O)NCC(OCC)OCC
inactive: RXF 393 > 100 µM | UO-31 > 100 µM | IGROV-1 > 100 µM | OVCAR-3 > 100 µM | SW-620 > 100 µM | SF-295 > 100 µM | NCI-H23 > 100 µM | HOP-62 > 100 µM | UACC-62 > 100 µM | M14 > 100 µM | KM12 > 100 µM | ACHN > 100 µM | HCC 2998 > 100 µM

COc1ccc(C(Cc2cc(OC)c(OC)c(OC)c2)C(=O)O)cc1 (centres undefined)
inactive: UO-31 72.3 µM | IGROV-1 76.2 µM | RPMI-8226 55.8 µM | OVCAR-3 24.3 µM | CAKI-1 64.1 µM | SW-620 46.9 µM | SF-295 26.1 µM | NCI-H23 97.9 µM | HOP-62 > 100 µM | UACC-62 31.2 µM | M14 44.6 µM | KM12 41.8 µM | ACHN > 100 µM | HCC 2998 > 100 µM

N#CC(C(=N/NC(N)=S)/C(=N\NC(N)=S)C(C#N)c1ccccc1)c1ccccc1 (centres undefined)
inactive: RXF 393 > 10 µM | UO-31 > 10 µM | RPMI-8226 > 10 µM | OVCAR-3 > 10 µM | SW-620 > 10 µM | SF-295 > 10 µM | NCI-H23 > 10 µM | HOP-62 > 10 µM | UACC-62 > 10 µM | M14 > 10 µM | KM12 > 10 µM | ACHN > 10 µM | HCC 2998 > 10 µM

CN1CCc2ccccc2C(C(=O)c2ccc3c(c2)OCO3)C1=O (centres undefined)
inactive: RXF 393 > 100 µM | UO-31 94 µM | IGROV-1 > 100 µM | RPMI-8226 > 100 µM | OVCAR-3 > 100 µM | CAKI-1 > 100 µM | SW-620 > 100 µM | NCI-H23 96.2 µM | HOP-62 > 100 µM | UACC-62 > 100 µM | M14 > 100 µM | KM12 > 100 µM | ACHN > 100 µM

COc1ccc(S(=O)(=O)N/N=C/CN2C(=O)c3ccccc3C2=O)cc1
inactive: RXF 393 > 100 µM | UO-31 > 10 µM | IGROV-1 > 100 µM | RPMI-8226 > 100 µM | SR > 100 µM | CAKI-1 > 100 µM | SW-620 > 100 µM | SF-295 > 100 µM | NCI-H23 > 100 µM | HOP-62 > 100 µM | UACC-62 > 100 µM | M14 > 100 µM | KM12 > 100 µM | ACHN > 100 µM | HCC 2998 > 100 µM

O=C1c2ccccc2N2OC3(N4CCCC4)CCCCC3C12c1ccccc1 (centres undefined)
inactive: RXF 393 17.5 µM | UO-31 39.7 µM | IGROV-1 42 µM | RPMI-8226 > 100 µM | SR 33.8 µM | SW-620 17.7 µM | SF-295 18.3 µM | NCI-H23 20.1 µM | HOP-62 > 100 µM | UACC-62 16.4 µM | M14 17.6 µM | ACHN 18.5 µM | HCC 2998 53 µM

COc1cc(/C=C2\CCc3ccccc3C2=O)cc(OC)c1OC
inactive: RXF 393 14.6 µM | UO-31 16.8 µM | RPMI-8226 3.92 µM | OVCAR-3 15.8 µM | SR 3.86 µM | CAKI-1 16.1 µM | SW-620 16.6 µM | SF-295 15 µM | NCI-H23 15.7 µM | HOP-62 21.5 µM | UACC-62 14.3 µM | M14 16.2 µM | KM12 13.6 µM | ACHN 15.8 µM | HCC 2998 18 µM
